These results are taken from patent EP3423441B1, “IODINATED ANALOGS OF CHOLINE, METHODS OF PREPARATION THEREOF, AND USE THEREOF AS MEDICAMENTS” (Univerzita Palackého v Olomouci, priority 2016, dated 2017).

A short description of one series: in vitro. Conditions: liver microsomes.
Series [1] is described as follows: Binding to plasmatic proteins. Conditions: plasma.
The test system of series [2] is choline transporters. As to the kind of experiment: In vitro determination of IC50: inhibition of [^3H]choline chloride accumulation in PC-3 cells. It counts as cell-based. Conditions: cell line PC-3 (human prostate carcinoma); [^3H]choline chloride 0.81 × 10^-6 M; 60 min at 37 °C. On the procedure: IC50 value corresponds to a concentration of the given analog of choline which reduces the accumulation of choline chloride, the natural ligand of choline transporterss, to 50 % of the maximum value. For the assay, the tritium labeled choline chloride, i.e. [^3H]choline chloride, was used. The assay was performed in vitro on the cell line PC-3 derived from a human prostate carcinoma, which is known to overexpress choline transporters. […] As the negative control, a cell line of human ovarian carcinoma SKOV3 prepared to the confluence of 90 % in 24-well plates was used.
The cultivation medium was removed from the thus prepared cells in cultivation plates and the cells were rinsed with phosphate buffered saline (PBS). Subsequently, 0.3 mL of "incubation buffer" (25 mM Tris/HCl, 5.4 mM KCl, 1.8 mM CaCl2, 0.8 mM MgSO4, 5 mM glucose, 140 mM NaCl, pH adjusted to 7.4) was added to the cells. Then 0.1 mL of the solution of the tested substance (analog of choline) in the incubation buffer was added to the PC-3 cells in such concentrations, that after adding [^3H]choline chloride the resulting concentrations of the tested analog would be following: 0 M, 10^-8 M, 10^-7 M, 10^-6 M, 5 × 10^-6 M, 10^-5 M, 10^-4 M, 5 × 10^-4 M, 10^-3 M, 5×10^-3 M. Each concentration was tested in triplicate.
Subsequently, all cells prepared in this manner (PC-3 and SKOV3) were incubated with the analogs of choline for 15 minutes at the temperature of 37 °C.
Then 0.1 mL of the solution of the [^3H]choline chloride in the incubation buffer was added to all cell-containing wells, so that 0.1 mL of the solution had the activity of 15 kBq and that the final concentration of the [^3H]choline chloride in the medium with the cells was 0.81 × 10^-6 M. The cells were then incubated at 37 °C for a period of 60 min. After the incubation, all buffer solution was removed from the cells. The cells were rinsed with PBS, which was subsequently removed, and 0.2 mL of aqueous NaOH solution (0.1 M) was added to each well. The cells were incubated with sodium hydroxide for 30 min at 37 °C. The lysate was then homogenized with a pipette and 10 µL of the lysate were used for the determination of protein concentration by bicinchonic acid assay (BCA).
The remaining lysate (180 µL) was quantitatively transferred into scintillation vials containing a previously prepared scintillation solution (2 mL of the solution in each vial). Each well was then additionally rinsed with 0.2 mL of pure water and this solution was added to the corresponding scintillation vials. Scintillation vials were closed and their content was stirred on a shaker.
To another three scintillation vials containing scintillation solution (2 mL of the solution in each vial) the standard samples of [^3H]choline chloride were added (i.e. 10 µl of the [^3H]choline chloride solution together with 180 µl of aqueous NaOH solution (0.1 M) and 200 µl of water). The vials were closed and their content was stirred on the shaker.
Subsequently, radioactivity of each scintillation vial was measured using a liquid scintillation counter (Tri-Carb 2910TR Liquid Scintillation Counter, PerkinElmer). The recorded counts per second (cps) were then used to calculate the accumulation of [^3H]choline chloride in the individual cell samples. […] These values were used to construct a sigmoid curve of dependence between the rate of [^3H]choline chloride accumulation and the competing ligand (analog of choline) concentration(inhibition curve, Figure 2). The IC50 values were calculated from these inhibition curves.

Another series in a line: Microsomal stability. Conditions: hepatic microsomes.
For series [3], the system named is choline transporters. Conditions: published data, Müller S. A. et al. (2009); cited from earlier work.

Each structure is given as a SMILES string. Where two headings read alike, the source gives them in different places.

Consider `C[N+](C)(CCO)Cc1ccccc1I.Cc1ccc(S(=O)(=O)[O-])cc1` [Example 19, (2-hydroxyethyl)-(2-iodobenzyl)-dimethylammonium 4-methylbenzenesulfonate], for which the intrinsic clearance (microsomal CLint) in the series “in vitro” is 166 µL/min/mg. Besides, the fraction unbound in series [1] is 0.661. For the same compound, half-maximal inhibition in the series on choline transporters [2] (IC50) required 160 µM. The “Microsomal stability t1l2” value in “Microsomal stability” was 8.3 min. In addition, the “Plasma stability (120 min)” value in the series “Stability in the plasma” is listed as 91.3%.
In the series “in vitro”, `Cc1ccc(S(=O)(=O)[O-])cc1.OCC[N+]1(Cc2ccccc2I)CCCCC1` [Example 14, 1-(2-hydroxyethyl)-1-(2-iodobenzyl)piperidin-1-ium 4-methylbenzenesulfonate] yielded a microsomal CLint of 22.6 µL/min/mg. The compound further showed a fraction unbound in series [1] of 0.831. In the series on choline transporters [2], this compound registered an IC50 of 190 µM. The “Microsomal stability t1l2” value in the series “Microsomal stability” was determined as 61.3 min. The “Plasma stability (120 min)” value in the series “Stability in the plasma” turned out to be 80.7%.
On the same counts, the results for `Cc1ccc(S(=O)(=O)[O-])cc1.OCC[N+]1(CCc2ccc(I)cc2)CCCC1` [Example 7, 1-(2-hydroxyethyl)-1-[2-(4-iodophenyl)ethyl]pyrrolidin-1-ium 4-methylbenzenesulfonate] are 90.6 µL/min/mg, 0.833, 16 µM, 15.3 min and 97.6%.
On the same counts, the results for `Cc1ccc(S(=O)(=O)[O-])cc1.OC1C[N+]2(Cc3ccccc3I)CCC1CC2` (stereo not shown) [Example 18, 3-hydroxy-1-(2-iodobenzyl)quinuclidin-1-ium 4-methylbenzenesulfonate] are 63 µL/min/mg, 0.903, 180 µM, 22.0 min and 73.4%.
In the series “in vitro”, `C[N+]1(Cc2ccccc2I)CCCC(O)C1.Cc1ccc(S(=O)(=O)[O-])cc1` (stereo not shown) [Example 16, 3-hydroxy-1-(2-iodobenzyl)-1-methylpiperidin-1-ium 4-methylbenzenesulfonate] returned a microsomal CLint of 11.6 µL/min/mg. The compound also gave a fraction unbound in series [1] of 0.956. In addition, in the series on choline transporters [2], the IC50 was 240 µM. The “Microsomal stability t1l2” value in the series “Microsomal stability” turned out to be 119.5 min. In the series “Stability in the plasma”, the “Plasma stability (120 min)” value is reported as 79.0%.
On the same counts, the results for `COc1ccc(CC[N+]23CCC(CC2)C(O)C3)cc1I.Cc1ccc(S(=O)(=O)[O-])cc1` (stereo not shown) [Example 2, 3-hydroxy-1-[2-(3-iodo-4-methoxyphenyl)ethyl]quinuclidin-1-ium 4-methylbenzenesulfonate] are 14.2 µL/min/mg, 0.748, 92 µM, 97.6 min and 59.0%.
The corresponding values for `CC[N+](CC)(CCO)Cc1ccccc1I.Cc1ccc(S(=O)(=O)[O-])cc1` [Example 15, Diethyl-(2-hydroxyethyl)-(2-iodobenzyl)ammonium 4-methylbenzenesulfonate] are 73.6 µL/min/mg, 0.814, 8.4 µM, 18.8 min and 84.9%.
Regarding `C[N+]1(C)CCOC(O)(c2ccc(-c3ccc(C4(O)C[N+](C)(C)CCO4)cc3)cc2)C1` (stereo not shown) [Hemicholinium-3, reference compound], the IC50 in the series with choline transporters [3] is 17 µM; in the series with choline transporters [2] it was 29 µM.
Consider `Cc1ccc(S(=O)(=O)[O-])cc1.OCCN1CC[N+](CCO)(Cc2ccccc2I)CC1` [Example 17, 1,4-bis(2-hydroxyethyl)-1-(2-iodobenzyl)piperazin-1-ium 4-methylbenzenesulfonate], for which the microsomal CLint in the series “in vitro” was determined as 0.8 µL/min/mg. The fraction unbound in series [1] was 0.943. The compound also returned a half-maximal inhibitory concentration (IC50) in the series on choline transporters [2] of 740 µM. For the same compound, in the series “Microsomal stability”, the “Microsomal stability t1l2” value is on record as 1732.5 min. Besides, the “Plasma stability (120 min)” value in the series “Stability in the plasma” came out at 58.4%.
On the same counts, the results for `COc1c(I)cc(CC[N+](C)(C)CCO)cc1I.Cc1ccc(S(=O)(=O)[O-])cc1` [Example 3, (2-hydroxyethyl)-[2-(3,5-diiodo-4-methoxyphenyl)ethyl]-dimethylammonium 4-methylbenzenesulfonate] are 1040 µL/min/mg, 0.512, 25 µM, 1.3 min and 76.4%.
The corresponding values for `COc1ccc(CCC[N+](C)(C)CCO)cc1I.Cc1ccc(S(=O)(=O)[O-])cc1` [Example 4, (2-hydroxyethyl)-[3-(3-iodo-4-methoxyphenyl)propyl]-dimethylammonium 4-methylbenzenesulfonate] are 1120 µL/min/mg, 0.715, 19 µM, 1.2 min and 63.9%.
